From patent US8846682B2, “Compound suitable for the treatment of synucleopathies” (Neuropore Therapies, Inc., priority 2009, dated 2014)

Key:
[1] = tested on: neuronal cells infected with LV-SYN; experiment: FLIPR assay of Ca++ levels (Flou-4) in neuronal cells infected with LV-SYN; type: cell-based
[2] = tested on: neuronal cells infected with LV-SYN; experiment: neurite outgrowth (MAP2 antibody) in neuronal cells expressing high levels of SYN; type: cell-based; conditions: 0.1 μM; FIG. 6
Experimental: For the neuronal cell based assays, the neuroblastoma line B103 will be used. […] To infect the neural cells with LV vectors, multiples of infections (MOI) of 0.1, 1 or 5 (based on TU/ml on 293T cells) will be used. After 4-5 days in vitro, the % of transgene-expressing cells will be analyzed. The B103 cells will be maintained at 37° C., 5% CO2 in Dulbecco's modified eagle medium (DMEM, high glucose) supplemented with 10% fetal bovine serum (Irvine Scientific, Irvine, Calif.) and 1% v/v penicillin/streptomycin. For analysis of SYN aggregation cell homogenates will be analyzed by immunoblot with antibodies against SYN and in coverslips by immunocytochemistry. For evaluation of neurite outgrowth coverslips will be immunostained with an antibody against MAP2 and analyzed with a digital Olympus microscope and the Image Quant System.

In the case of `CCCCNC(=O)C(Cc1c[nH]c2ccccc12)NC(=O)c1cnc(N2CCNCC2)s1` (stereo not drawn) [NPT200-5], the “improvement of Ca++ levels” value ([1]; 0.1 μM concentration) is reported as 50%, the “levels of Ca++ after treatment” value ([1]; 24 hrs treatment, LV-SYN cells showed 25-30% higher Ca++ than empty vector control, FIG. 7) is reported as “back to baseline” and the “effect on neurite length extension and cellular morphology” value [2] is reported as “ameliorated the deleterious effects on neurite length extension and improved cellular morphology”.
